Test results as given in patent publication US7125984B2, “Glucuronofucan sulfate” (Takara Bio Inc., priority 2000, dated 2006).

Columns and labels:
[1] = system: endo-α-L-fucosidase; test: effect of calcium salt, protein and sodium chloride on the enzymatic reaction of endo-α-L-fucosidase; format: biochemical, Fucophilus fucoidanolyticus strain SI-1234; settings: for activation of endo-α-L-fucosidase (relative activity versus concentration in the reaction system): result in words
From the text: (§1) Then, the relationship between the relative activity of the α-D-glucuronidase or the endo-α-L-fucosidase of the present invention and the concentration of calcium chloride contained in the reaction system was examined.
(§2) Then, the relationship between the relative activity of the α-D-glucuronidase or the endo-α-L-fucosidase of the present invention and the concentration of bovine serum albumin contained in the reaction system was examined.
(§3) Then, the relationship between the relative activity of the α-D-glucuronidase or the endo-α-L-fucosidase of the present invention and the concentration of sodium chloride contained in the reaction system was examined.

[2] = system: α-D-glucuronidase; test: effect of calcium salt, protein and sodium chloride on the enzymatic reaction of α-D-glucuronidase; format: biochemical, Fucophilus fucoidanolyticus strain SI-1234; settings: for activation of α-D-glucuronidase (relative activity versus concentration in the reaction system): result in words
From the text: as §1, §2, §3

[3] = oligosaccharide having a low molecular weight as substrate
[4] = sulfated glucuronofucan having a high molecular weight as substrate

| Compound | activation of endo-α-L-fucosidase (relative activity versus concentration in the reaction system) [1] | activation of α-D-glucuronidase (relative activity versus concentration in the reaction system) [2] | activation of endo-α-L-fucosidase [1, 3] | activation of endo-α-L-fucosidase [1, 4] | activation of α-D-glucuronidase [2, 3] | activation of α-D-glucuronidase [2, 4] |
| --- | --- | --- | --- | --- | --- | --- |
| bovine serum albumin: protein added to the reaction system as enzyme activator | activated | activated | – | – | – | – |
| [Ca+2].[Cl-].[Cl-] [calcium chloride] | activated | activated | – | – | – | – |
| [Cl-].[Na+] [sodium chloride] | – | – | not activated | activates | not activated | activates |
